The text below walks through data of patent publication US10905691B2, “Use of triazolo(4,5-d)pyrimidine derivatives for prevention and treatment of bacterial infection” (Universite de Liege, priority 2016, dated 2021).

Where two headings read alike, the source gives them in different places.

Common to all, as to format: cell-based
In experiment [1] the test system is Escherichia coli (ATCC 8739). The experiment can be described thus: MBC determination with polymyxin B nonapeptide (PMBN). The following applies: ATCC8739, in presence of 40 μg/ml PMBN, read-out: Minimal Bactericidal Concentration (MBC). Here is the method:
The MBC represents the lowest concentration of drug required to kill the bacteria in a liquid culture.
The Minimal Bactericidal Concentration (MBC) of Triafluocyl in presence of 40 μg/ml PMBN against Escherichia coli (ATCC 8739) is equal to 5 μg/ml (FIG. 11B).
The Minimal Bactericidal Concentration (MBC) of Fluometacyl in presence of 40 μg/ml PMBN against Escherichia coli (ATCC 8739) is equal to 5 μg/ml (FIG. 12B).

Experiment [2] concerns Staphylococcus epidermidis (ATCC 35984, also known as RP62A). Briefly: MIC determination (EUCAST, Mueller-Hinton broth). Here is the method: The Minimal Inhibitory Concentration (MIC) and the Minimal Bactericidal Concentration (MBC) of Triafluocyl were determined in Staphylococcus epidermidis (ATCC 35984, also known as RP62A) according to EUCAST (European Committee on Antimicrobial Susceptibility Testing) recommendations.
Briefly, a single colony grown on a Tryptic Soy Agar (TSA) plate was resuspended and cultured in Tryptic Soy Broth (TSB) overnight (O/N) in aerobic conditions (37° C. with 220 rpm shaking), next day a 1:50 inoculum in Mueller-Hinton broth (MHB) was incubated in aerobic conditions for 3 hr and an inoculum of 1:100 dilution, corresponding to 3×10^5 CFU/ml, was incubated in presence or absence of different concentrations of Triafluocyl in 1% DMSO (vehicle). After O/N growth the OD of each culture was measured at 600 nm in a spectrophotometer (OD600). The MIC represents the concentration at which there is no visible growth of bacteria, i.e. ΔOD at 600 nm equal to zero (blank is the medium alone).
The Minimal Inhibitory Concentration (MIC) and the Minimal Bactericidal Concentration (MBC) of Fluometacyl were determined on several gram-positive strains (Table 2) following EUCAST (European Committee on Antimicrobial susceptibility Testing) recommendations.
For MIC determination a single colony was resuspended and cultured in the appropriate bacteria-specific medium (TSB: Tryptic Soy Broth for S. aureus atcc 25904 and S. epidermidis and BHI: brain-heart infusion medium for all the other strains) overnight (O/N) in aerobic conditions (37° C. with 220 rpm shaking), next day a 1:100 inoculum was incubated in Mueller-Hinton broth (MHB) in aerobic conditions for 3 hr (OD600=0.08-0.1). A further inoculum, 1:300 dilution of the MHB culture, corresponding to 3×10^5 CFU/ml, was grown in presence or absence of different concentrations of Fluometacyl, 1% DMSO in MHB for 20 hr.

For experiment [3], the system named is Escherichia coli (ATCC 8739). Briefly: MIC determination with or without polymyxin B nonapeptide (PMBN). Conditions: for MIC: Escherichia coli, ATCC8739, in presence of 40 μg/ml PMBN; for inhibition of E. coli growth: taken alone, concentrations up to 15 μg/ml. On the procedure: Determination of Minimal Inhibitory Concentration (MIC) and Minimal Bactericidal Concentration (MBC) of Triafluocyl (Cayman Chemical, Item No. 15425) in presence of polymyxin B nonapeptide (PMBN) (Sigma-Aldrich Merk, Item No. P2076) against Escherichia coli (ATCC 8739). […] A single colony grown on a Luria-Bertani Agar (LB) plate was resuspended and cultured in LB medium overnight (O/N) in aerobic conditions (37° C. with 220 rpm shaking), next day a 1:50 inoculum in Mueller-Hinton broth (MHB) is incubated in aerobic conditions for 1 h30 (OD=0.08-0.1) and an inoculum corresponding to 3×10^6 colony forming unit (CFU)/ml, is incubated in presence or absence of different concentrations of Triafluocyl in 1% DMSO with or without 40 μg/ml Polymyxin B nonapeptide (PMBN) for 18 hr in aerobic conditions (37° C. with 220 rpm shaking). Growth of Escherichia coli in 7 conditions depicted in FIG. 11 is evaluated by reading the OD of each culture at 600 nm (OD600) in a spectrophotometer (Victor 3-Perkin Elmer). Determination of Minimal Inhibitory Concentration (MIC) and Minimal Bactericidal Concentration (MBC) of Fluometacyl in presence of polymyxin B nonapeptide (PMBN) (Sigma-Aldrich Merk, Item No. P2076) against Escherichia coli (ATCC 8739). The Minimal Inhibitory Concentration (MIC) represents the concentration, in a liquid culture, at which there is no visible growth of bacteria (no pellet or cloudiness), i.e. ΔOD at 600 nm equal to zero wherein ΔOD is the difference between the resulting optical density (OD) with the molecule together with PMBN, and the optical density (OD) of the blank (blank is the medium alone). A single colony grown on a Luria-Bertani Agar (LB) plate is resuspended and cultured in LB medium overnight (O/N) in aerobic conditions (37° C. with 220 rpm shaking), next day a 1:50 inoculum in Mueller-Hinton broth (MHB) is incubated in aerobic conditions for 1 h30 (OD=0.08-0.1) and an inoculum corresponding to 3×10^6 colony forming unit (CFU)/ml is incubated in presence or absence of different concentrations of Fluometacyl in 1% DMSO (vehicle) with or without 40 μg/ml Polymyxin B nonapeptide (PMBN) for 18 hr in aerobic conditions (37° C. with 220 rpm shaking). Growth of bacteria in the 7 individual cultures (FIG. 12A) is evaluated by reading the OD of each culture at 600 nm (OD600) in a spectrophotometer (Victor 3-Perkin Elmer).

In experiment [4] the test system is Escherichia coli (ATCC 8739). The experiment can be described thus: MBC determination with C12(ω7)Kβ12 (OAK). Conditions: ATCC8739, in presence of 5 μg/ml OAK, read-out: Minimal Bactericidal Concentration (MBC). On the procedure:
Viable count in the liquid culture is estimated by counting the colony forming units (c.f.u.) on a Luria-Bertani (LB) agar plate—after 24 h incubation at 37° C.—and calculating the c.f.u. per milliliter of the liquid culture (c.f.u./ml).
The Minimal Bactericidal Concentration (MBC) of Triafluocyl in presence of 5 μg/ml OAK against Escherichia coli (ATCC 8739) is equal to 10 μg/ml (FIG. 13B).
The Minimal Bactericidal Concentration (MBC) of Fluometacyl in presence of 5 μg/ml OAK against Escherichia coli (ATCC 8739) is equal to 5 μg/ml (FIG. 14B).

The mark [5] stands for this setting: Staphylococcus epidermidis, ATCC35984, S. epidermidis, read-out: MIC.

Consider `CCCSc1nc(N[C@@H]2C[C@H]2c2ccc(F)c(F)c2)c2nnn([C@@H]3C[C@H](O)[C@@H](O)[C@H]3O)c2n1` [Fluometacyl, (1S,2R,3S,4R)-4-[7-[[(1R,2S)-2-(3,4-Difluorophenyl)cyclopropyl]amino]-5-(propylthio)-3H-1,2,3-triazolo[4,5-d]pyrimidin-3-yl]-1,2,3-cyclopentanetriol], for which the MBC in experiment [1] and in experiment [4] was 5 µg/mL each time. Moreover, the figures for the MIC in experiment [2] (setting [5]) and in experiment [3] were 30 µM and 5 µg/mL, respectively. The “inhibition of E. coli growth” value in experiment [3] was “unable to inhibit E. coli growth”.
With `CCCSc1nc(N[C@@H]2C[C@H]2c2ccc(F)c(F)c2)c2nnn([C@@H]3C[C@H](OCCO)[C@@H](O)[C@H]3O)c2n1` [Triafluocyl, (1S,2S,3R,5S)-3-[7-[(1R,2S)-2-(3,4-difluorophenyl)cyclopropylamino]-5-(propylthio)-3H-[1,2,3]-triazolo[4,5-d]pyrimidin-3-yl]-5-(2-hydroxyethoxy)-1,2-cyclopentanediol], the MBC in experiment [1] was found to be 5 µg/mL; in experiment [4], 10 µg/mL. Further, the MIC worked out at 15 µg/mL in experiment [2] (S. epidermidis), 12 ± 3 µg/mL in experiment [2] (setting [5]) and 5 µg/mL in experiment [3]. Further, the “inhibition of E. coli growth” value in experiment [3] is listed as “unable to inhibit E. coli growth”.

As a reminder, the MIC is the lowest concentration that inhibits growth of the organism.
